Experimental data from PubChem BioAssay (NCI).
Where “and” joins values, the source holds several entries; their conditions need not be identical. Identical values can stand only once.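 Protocol summary: plate cells (96-well), add compound at 5 concentrations, incubate 48 h, interpolate endpoints linearly. GI50 = concentration required for 50% inhibition of growth. TGI is the concentration that stops growth completely.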

Columns and labels:
Assay in all cases: NCI anticancer screen, dose series, 48 h
[1] = system: EKVX NSCLC
[2] = system: LXFL 529 NSCLC
[3] = system: OVCAR-8 ovarian
[4] = system: SNB-19 CNS
[5] = system: UACC-62 melanoma
[6] = system: UO-31 renal
[7] = system: XF 498 CNS
[8] = system: HOP-92 NSCLC
[9] = system: HS 578T breast
[10] = system: NCI/ADR-RES ovarian

With `Cc1cc(N(CCC#N)CCC#N)ccc1N=Nc1ccc(S(N)(=O)=O)cc1` the TGI [1] was > 100 µM, the TGI [2] was > 100 µM and the TGI [3] was > 100 µM. The TGI [4] was > 100 µM, the TGI [5] was > 100 µM and the TGI [6] was > 100 µM. For the same compound, the TGI [7] was > 100 µM.
`CCCCCCCCCCCC(=O)OCCOCCOCCOCCOCCOCc1ccccc1` was tested, and the TGI [1] was > 100 µM, the TGI [8] was > 100 µM and the TGI [2] was > 100 µM. The TGI [3] was > 100 µM, the TGI [4] was > 100 µM and the TGI [5] was > 100 µM. For the same compound, the TGI [6] was > 100 µM.
`Cc1c(C(=O)CC(=O)C(=O)Nc2ccccc2C(F)(F)F)[n+](=O)c2ccccc2n1[O-]` gave a TGI [1] of 49.4 µM, a TGI [8] of 60.1 µM and a TGI [2] of 62.1 µM. For the same compound, the TGI [3] was 61.3 µM, the TGI [4] was > 100 µM and the TGI [5] was 34.4 µM. The TGI [6] was > 100 µM and the TGI [7] was 42 µM.
In the case of `CCCCCCCCCCCCCC(=O)OC(/C=C/C(C)C)C(O)C(O)C(OC)C(=O)NC1CCCCN(C)C1=O` (stereo not given), the GI50 [1] is reported as 5.01 µM and 15.7 µM, the TGI [1] is reported as 17.3 µM and > 49 µM and the GI50 [8] is reported as > 49 µM. The TGI [8] was > 49 µM, the GI50 [2] was > 49 µM and the TGI [2] was 6.89 µM and > 49 µM. For the same compound, the TGI [3] was 8.44 µM and > 49 µM, the GI50 [4] was > 49 µM and the TGI [4] was 6.46 µM and > 49 µM. For the same compound, the TGI [5] was 6.15 µM and > 49 µM, the GI50 [6] was > 49 µM and the TGI [6] was 5.25 µM and > 49 µM.
In the case of `CC1(C)C(=O)/C=C\C(=O)C(C)(C)C2=CC=C(O2)C(C)(C)C(=O)/C=C\C(=O)C(C)(C)C2=CC=C1O2`, the TGI [1] is reported as > 100 µM, the TGI [8] is reported as > 100 µM and the TGI [2] is reported as > 100 µM. For the same compound, the TGI [3] was > 100 µM, the TGI [4] was > 100 µM and the TGI [7] was > 100 µM.
For `Cc1cc(NS(=O)(=O)c2ccc(Nc3c4ccccc4nc4c(C(=O)N5CCN(CCOS(C)(=O)=O)CC5)cccc34)cc2)no1`, the TGI [8] was > 100 µM, the TGI [3] was > 100 µM and the TGI [4] was > 100 µM. The TGI [5] was > 100 µM, the TGI [6] was > 100 µM and the TGI [7] was > 100 µM.
For `NC(=O)NO.O.O.O.O.O.O.O.O.O.O.O.[Ge].[Ge].[Ge].[Ge].[Ge].[O]=[Ge].[O]=[Ge].[O]=[Ge].[O]=[Ge].[O]=[Ge][OH]`, the TGI [1] was > 100 µM, the TGI [8] was > 100 µM and the TGI [2] was > 100 µM. For the same compound, the TGI [3] was > 100 µM, the TGI [4] was > 100 µM and the TGI [5] was 53.5 µM. For the same compound, the TGI [6] was > 100 µM and the TGI [7] was > 100 µM.
With `Cc1nc2c(ccc3ncccc32)[nH]1` the TGI [1] was > 100 µM, the TGI [8] was > 100 µM and the TGI [2] was > 100 µM. For the same compound, the TGI [3] was > 100 µM, the TGI [4] was > 100 µM and the TGI [5] was > 100 µM. The TGI [6] was > 100 µM.
In the case of `Cc1c(C(=O)C/C(=N/NC(=O)c2ccccc2O)C(=O)Nc2ccccc2C(C)C)[n+](=O)c2ccccc2n1[O-]`, the TGI [1] is reported as > 100 µM, the TGI [2] is reported as > 100 µM and the TGI [3] is reported as > 100 µM. The TGI [4] was > 100 µM, the TGI [5] was 77.7 µM and the TGI [7] was > 100 µM.
In the case of `OCC1=CC(NC2CC(CO)C(O)C(O)C2O)C(O)C(O)C1O` (stereo not given), the TGI [1] is reported as > 100 µM, the TGI [3] is reported as > 100 µM and the TGI [4] is reported as > 100 µM. The TGI [5] was > 100 µM, the TGI [6] was > 100 µM and the TGI [7] was > 100 µM.
`CCC[CH2][Sn]([CH2]CCC)([S]c1cccc2cccnc12)[S]c1cccc2cccnc12` gave a GI50 [1] of 0.336 µM, a TGI [1] of 1.45 µM and a GI50 [2] of 0.039 µM. The TGI [2] was 0.163 µM, the GI50 [3] was 0.283 µM and the TGI [3] was 1.16 µM. The GI50 [4] was 0.373 µM, the TGI [4] was 1.39 µM and the GI50 [5] was 0.279 µM. For the same compound, the TGI [5] was 0.959 µM, the GI50 [6] was 0.189 µM and the TGI [6] was 0.345 µM. It also gave a GI50 [7] of 0.101 µM and a TGI [7] of 0.26 µM.
For `CCOC(=O)CCC1(C(=O)OCC)CCCCC1=O` (stereo not given), the TGI [1] was > 100 µM, the TGI [8] was > 100 µM and the TGI [2] was > 100 µM. The TGI [3] was > 100 µM, the TGI [4] was > 100 µM and the TGI [6] was > 100 µM. The TGI [7] was > 100 µM.
For `Cc1ccc(S(=O)(=O)OC[C@@H]2CO2)cc1`, the TGI [1] was > 100 µM, the TGI [8] was > 100 µM and the TGI [2] was > 100 µM. For the same compound, the TGI [3] was > 100 µM, the TGI [4] was > 100 µM and the TGI [6] was > 100 µM.
With `COc1cc2cc(OC)c3cc4c(cc3c2c(OC)c1OC)OCO4` the TGI [1] was > 92 µM, the TGI [8] was > 93.3 µM and the TGI [2] was > 100 µM. For the same compound, the TGI [3] was > 100 µM, the TGI [4] was > 100 µM and the TGI [5] was > 64.4 µM. For the same compound, the TGI [6] was > 67.8 µM.
`O=C(O)CCNCCCNCCC(=O)O` was tested, and the TGI [1] was > 100 µM, the TGI [8] was > 100 µM and the TGI [2] was > 100 µM. For the same compound, the TGI [3] was > 100 µM, the TGI [4] was > 100 µM and the TGI [5] was > 100 µM. For the same compound, the TGI [7] was > 100 µM.
For `CCOC(=O)C(C)(C)Oc1ccc2c(-c3ccccc3)cc(=O)oc2c1`, the TGI [1] was > 100 µM, the TGI [2] was 94.8 µM and the TGI [3] was > 100 µM. The TGI [4] was > 100 µM, the TGI [5] was 38.6 µM and the TGI [6] was 76 µM. The TGI [7] was 47.9 µM.
`NC(N)=NS(=O)(=O)c1ccc(Nc2c3ccccc3nc3c(C(=O)NCCO)cccc23)cc1` was tested, and the GI50 [1] was 25.7 µM, the TGI [8] was 0.747 µM and the GI50 [9] was 21.3 µM. The GI50 [10] was 48.7 µM, the TGI [10] was > 100 µM and the GI50 [3] was 29.8 µM. It also gave a GI50 [4] of 26.6 µM, a GI50 [5] of 18.1 µM and a GI50 [6] of 18 µM.
With `COc1ccc(CC2c3cc4c(cc3CCN2C)OCO4)c(C=O)c1OC` (stereo not given) the TGI [1] was > 100 µM, the TGI [8] was > 100 µM and the TGI [9] was > 100 µM. For the same compound, the TGI [10] was > 100 µM, the TGI [3] was > 100 µM and the TGI [4] was > 100 µM. For the same compound, the TGI [5] was > 100 µM and the TGI [6] was > 100 µM.
For `CCn1c(C)nn2c(=O)c3ccccc3nc2c1=O`, the TGI [1] was > 100 µM, the TGI [8] was > 100 µM and the TGI [2] was > 100 µM. For the same compound, the TGI [3] was > 100 µM, the TGI [5] was > 100 µM and the TGI [7] was > 100 µM.
With `C1=C2/CC[C@H](Sc3ccccc3)C2C2(CCCCC/1)OCCO2` (stereo not given in full) the TGI [1] was > 100 µM, the TGI [8] was 29.6 µM and the TGI [3] was > 100 µM. The TGI [4] was > 100 µM, the TGI [5] was 64.5 µM and the TGI [7] was 58.6 µM.
In the case of `CC(=O)[CH-]C(=O)c1ccccc1.CC(=O)[CH-]C(=O)c1ccccc1.CN(C)c1ccc([O-])cc1.CN(C)c1ccc([O-])cc1.Cl.[Ti+4]`, the GI50 [1] is reported as 24.6 µM, the TGI [1] is reported as > 31.6 µM and the GI50 [8] is reported as 14.9 µM. For the same compound, the TGI [8] was 27.5 µM, the GI50 [2] was 16 µM and the TGI [2] was > 31.6 µM. For the same compound, the GI50 [3] was 21.9 µM, the TGI [3] was > 31.6 µM and the GI50 [4] was 22 µM. The TGI [4] was > 31.6 µM, the GI50 [5] was > 31.6 µM and the TGI [5] was > 31.6 µM. For the same compound, the GI50 [6] was 17.9 µM and the TGI [6] was > 31.6 µM.
`O=C(Nc1ccccc1)c1c(O)[nH]c(=S)[nH]c1=O` was tested, and the GI50 [1] was 120 µM, the TGI [1] was 103 µM and > 250 µM and the TGI [8] was 45.1 µM. It also gave a TGI [9] of 74.3 µM, a TGI [10] of 83.8 µM and a GI50 [3] of 41.3 µM. The TGI [3] was 76.7 µM and > 250 µM, the GI50 [4] was 40.7 µM and the TGI [4] was 118 µM and > 250 µM. The GI50 [5] was 33 µM, the TGI [5] was 55.2 µM and 162 µM and the GI50 [6] was 65.4 µM. The TGI [6] was 65.9 µM and 174 µM, the GI50 [7] was 8.86 µM and 61.7 µM and the TGI [7] was 19.5 µM and 155 µM.
For `Cc1ccc(Cl)c2c(N=Nc3ccccc3[N+](=O)[O-])c(O)[nH]c12`, the TGI [1] was > 100 µM, the TGI [8] was > 100 µM and the TGI [9] was 70.2 µM. For the same compound, the TGI [10] was > 100 µM, the TGI [3] was > 100 µM and the TGI [4] was > 100 µM. For the same compound, the TGI [5] was > 100 µM and the TGI [6] was > 100 µM.
In the case of `CC1(C(=O)O)CCC[C@@]2(C)C1CC[C@@]1(C)c3cocc3CCC21` (stereo not given in full), the TGI [1] is reported as > 100 µM, the TGI [8] is reported as > 100 µM and the TGI [2] is reported as > 100 µM. The TGI [3] was > 100 µM, the TGI [4] was > 100 µM and the TGI [5] was > 100 µM. The TGI [6] was > 100 µM and the TGI [7] was > 100 µM.
